Read-outs that look alike come from different tables or passages of the source.
What was measured:
CSM14.1 cells = assay: ER stress cell survival assay (thapsigargin, […]-GLO); format: cell-based; settings: dose-response
Method: CSM14.1 cells were maintained in Complete Medium at 32° C.; wherein the Complete Medium contained Dulbecco's modified eagle medium (DMEM) with 10% fetal bovine serum (FSB), 1% L-glutamine, 100 IU/mL penicillin, and 100 μg/mL streptomycin. The cells were recovered from cultures by trypsinization and then seeded in 384 well plates (Greiner #781098) at a concentration of 1,000 cells/well in 20 μL of DMEM Assay Medium, wherein the DMEM Assay Medium contained 2% FBS, 100 IU/mL penicillin, and 100 μg/mL streptomycin. Seeding was performed using a MultiDrop Combi reagent broadcaster. The plates were incubated overnight at 32° C.
A test compound was prepared by 2-fold serial dilution in 100% DMSO using a BIOMEK® 2000 liquid handler (Beckman Coulter). A dose-response curve containing 10 concentrations of the test compound was obtained. Using a BIOMEK® FX liquid handler (Beckman Coulter), 2.5 μL of the test compound was transferred from the 100% DMSO serial dilution plate to an intermediate plate containing 47.5 μL of DMEM Assay Medium containing 2% FBS, 100 IU/mL penicillin, and 100 μg/mL streptomycin and mixed. To reduce or eliminate the interference from the compound's precipitation, 6 μL of the diluted compound was immediately transferred to the assay plate to achieve a high compound concentration of 100 μM in 99% DMEM Assay Medium and 1% DMSO. After the assay plates were incubated for 2 hrs, 4 μL of 112.5 μM thapsigargin (TG) (DMSO stock diluted into Assay TC Medium) was dispensed into each testing well with a MultiDrop Combi reagent broadcaster for a final concentration of about 15 μM TG. The tissue culture media (4 μL) containing vehicle only was transferred manually to each control cell using a 16 channel electronic pipette. […] High luminescence indicates cell survival.
Alternatively, a test compound was tested at a single compound concentration (e.g., 2 μM) to determine the effect of the compound on cell survival in comparison with vehicle.

[1] = Pharmacokinetics in Sprague Dawley rats (Table 4); format: in vivo; settings: rat; for AUC(0-inf) / AUC(0-t) / Cmax / Tmax / clearance / half-life / MRT inf / Vd: Sprague Dawley, in vivo; for MRT inf: read-out: MRT0-∞; for Vd: read-out: Vz; for F: PO (10 mg/kg) vs IV (2 mg/kg)
Excerpt: Compound D1 was formulated in 0.3% DMA/1% SOLUTOL®/98.7% saline. Compound D6 was formulated in 0.5% DMA/1% SOLUTOL®/94.5% 0.01N HCl in saline/4% NaOH (pH 4-5).

SERCA, cardiac SR = biological target: T1, SERCA, cardiac SR; assay: Activation of SERCA, NADH-linked enzyme-coupled ATPase assay, cardiac SR; format: biochemical; settings: read-out: CSR EC50
T1 construct: 2 mg or 7 mg of SR vesicles (optimized for skeletal or cardiac SR, respectively); from tissue; host or cells: cardiac sarcoplasmic reticulum vesicles
T1 sequence (P16615 1-997 isoform P16615-2): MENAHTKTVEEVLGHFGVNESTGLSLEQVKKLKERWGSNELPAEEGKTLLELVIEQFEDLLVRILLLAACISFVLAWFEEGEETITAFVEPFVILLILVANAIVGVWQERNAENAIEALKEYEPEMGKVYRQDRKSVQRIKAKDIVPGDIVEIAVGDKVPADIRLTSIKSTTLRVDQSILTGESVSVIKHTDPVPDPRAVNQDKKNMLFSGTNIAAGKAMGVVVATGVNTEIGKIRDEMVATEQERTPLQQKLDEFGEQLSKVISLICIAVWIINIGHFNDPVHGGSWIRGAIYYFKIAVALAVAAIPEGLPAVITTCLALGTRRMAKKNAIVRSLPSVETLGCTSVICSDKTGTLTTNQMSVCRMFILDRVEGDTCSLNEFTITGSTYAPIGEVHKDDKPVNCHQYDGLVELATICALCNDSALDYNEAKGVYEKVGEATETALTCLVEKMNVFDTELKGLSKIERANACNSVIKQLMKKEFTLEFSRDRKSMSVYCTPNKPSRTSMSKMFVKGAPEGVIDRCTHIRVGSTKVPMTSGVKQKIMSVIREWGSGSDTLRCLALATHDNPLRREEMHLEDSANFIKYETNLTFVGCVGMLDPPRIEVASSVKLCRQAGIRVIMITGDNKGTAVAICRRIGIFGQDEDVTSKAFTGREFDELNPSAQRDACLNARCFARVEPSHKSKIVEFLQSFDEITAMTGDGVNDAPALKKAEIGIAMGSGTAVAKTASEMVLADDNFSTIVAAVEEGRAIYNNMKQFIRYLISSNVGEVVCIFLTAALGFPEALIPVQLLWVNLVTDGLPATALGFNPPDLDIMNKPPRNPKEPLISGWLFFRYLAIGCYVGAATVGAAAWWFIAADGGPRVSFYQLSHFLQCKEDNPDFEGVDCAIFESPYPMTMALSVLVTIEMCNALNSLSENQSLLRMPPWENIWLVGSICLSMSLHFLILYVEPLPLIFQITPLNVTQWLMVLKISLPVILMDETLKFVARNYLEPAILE
Method: Test compounds were characterized over a range of concentrations using an NADH-linked, enzyme-coupled ATPase assay. Each well contained 2 mg or 7 mg of SR vesicles (optimized for skeletal or cardiac SR, respectively), 50 mM MOPS (pH 7.0), 100 mM KCl, 5 mM MgCl2, 1 mM EGTA, 0.2 mM NADH, 1 mM phosphoenol pyruvate, 5 IU pyruvate kinase, 5 IU lactate dehydrogenase, and 3.5 mg/mL A23187 (a calcium ionophore), and CaCl2 was added to set free [Ca2+] to the specific values. The assay was started upon addition of ATP at a final concentration of 5 mM, and read in a SpectraMax Plus microplate spectrophotometer and the ATPase activities were fitted using the Hill function.

MCF10A Cells = assay: In vitro viability, monolayers (2D) and spheroids (3D), normal breast tissue cells; format: cell-based; settings: Homo sapiens, MCF-10A
Method: (§1) The anticancer activity of a test compound was determined in vitro using mammalian tumor cells that grew as monolayers and spheroids. Spheroids represent the three-dimensional growth and organization of solid tumors, and thus are an intermediate model between monolayers of cells in culture and tumors in vivo. The cancer cell line tested was a breast cancer cell line, BT474. Normal breast tissue cells (MCF10A) were used as a control. The viability/proliferation of the cells were measured using […]-GLO® reagent.

BT474 Cells = assay: In vitro anticancer activity, monolayers (2D) and spheroids (3D), BT474; format: cell-based; settings: Homo sapiens
Method: as §1

SERCA = assay: Ca-ATPase assay, microsomal preparations from HEK 293 cells; format: biochemical, human
Method: A Ca-ATPase assay was performed using microsomal preparations from HEK 293 cells at a series of calcium concentrations corresponding to the physiological range, relative to controls. The ATP hydrolysis rate was measured over a range of calcium concentrations in the presence of test compounds using an NADH-linked, enzyme-coupled ATPase assay adapted for 96-well microplates, with Vmax determined by fitting the ATPase calcium-dependence to the Hill function. […] CaCl2 was added to set free [Ca^2+] to the specific values.

[2] = Pharmacokinetics in Beagle dogs (Table 5); format: in vivo; settings: dog, PO (10 mg/kg) vs IV (1 mg/kg), based on AUC0-t
Method: For pharmacokinetic evaluation, 3 male Beagle dogs were intravenously (IV) dosed (1 mg/kg body weight) and 3 male Beagle dogs were orally (PO) dosed (10 mg/kg body weight) with a test compound. Blood (approximately 1.0 mL) was collected via femoral vein into tubes containing K3EDTA anticoagulant at 0, 0.017, 0.083, 0.5, 1, 2, 4, 6, 8, and 24 hours post-dosing. Plasma samples were analyzed by LC-MS/MS. The analytical results were confirmed using quality control samples for intra-assay variation. The accuracy of >66% of the quality control samples was between 80-120% of the known value(s). A standard set of pharmacokinetic parameters were generated from concentration data including Area Under the Curve (AUC0-t and AUC0-inf), elimination half-lives, clearances, volume of distribution and bioavailabilities (based on AUC0-t), maximum plasma concentration (C0; Cmax), and time to reach maximum plasma concentration (Tmax).

**Q.** With O=C(c1ccccc1)N1CCN(c2ccnc3cc(Cl)ccc23)CC1 [Compound D1, (4-(7-Chloroquinolin-4-yl)piperazin-1-yl)(phenyl)methanone] as the molecule, how does the EC50 (CSM14.1 cells) read?
**A.** 20 to 100 µM

**Q.** And the AUC(0-inf) ([1]; IV (2 mg/kg))?
**A.** 5900 ± 454 ng·h/mL

**Q.** What about the AUC(0-t) ([1]; IV (2 mg/kg)) of the same molecule?
**A.** 5880 ± 453 ng·h/mL

**Q.** What about the Cmax ([1]; IV (2 mg/kg)) of the same molecule?
**A.** 18.6 ± 1.33 µM

**Q.** What about the Tmax ([1]; IV (2 mg/kg)) of the same molecule?
**A.** 0.02 h

**Q.** And the clearance ([1]; IV (2 mg/kg))?
**A.** 5.67 mL/min/kg

**Q.** What about the half-life ([1]; IV (2 mg/kg)) of the same molecule?
**A.** 3.21 ± 0.39 h

**Q.** What about the MRT inf ([1]; IV (2 mg/kg)) of the same molecule?
**A.** 2.98 ± 0.17 h

**Q.** What about the Vd ([1]; IV (2 mg/kg)) of the same molecule?
**A.** 1.57 ± 0.2 L/kg

**Q.** What about the AUC(0-inf) ([1]; PO (10 mg/kg)) of the same molecule?
**A.** 162000 ± 11900 ng·h/mL

**Q.** What about the AUC(0-t) ([1]; PO (10 mg/kg)) of the same molecule?
**A.** 24600 ± 4100 ng·h/mL

**Q.** And the Cmax ([1]; PO (10 mg/kg))?
**A.** 15.3 ± 3.86 µM

**Q.** And the Tmax ([1]; PO (10 mg/kg))?
**A.** 0.58 ± 0.38 h

**Q.** And the half-life ([1]; PO (10 mg/kg))?
**A.** 2.76 ± 0.69 h

**Q.** What about the MRT inf ([1]; PO (10 mg/kg)) of the same molecule?
**A.** 3.93 ± 0.41 h

**Q.** And the F [1]?
**A.** 84%

**Q.** For O=C(c1cccc(Cl)c1)N1CCN(c2ccnc3cc(Cl)ccc23)CC1 [Compound D3, (3-Chlorophenyl)(4-(7-chloroquinolin-4-yl)piperazin-1-yl)methanone], which EC50 (CSM14.1 cells) is on record?
**A.** 20 to 100 µM

**Q.** For CC(C)Oc1ccc(C(=O)Nc2cccc3cccnc23)cc1 [Compound A11, 4-Isopropoxy-N-(quinolin-8-yl)benzamide], which EC50 (SERCA, cardiac SR) is on record?
**A.** < 20 µM

**Q.** Which IC50 (MCF10A Cells; monolayers (2D), read-out: IC50 (2D)) does the source give for CCN(CC)CCNC(=O)c1c(C)[nH]c(/C=C2\C(=O)Nc3ccc(F)cc32)c1C [Sutent, reference compound] here?
**A.** 3 µM

**Q.** And the IC50 (MCF10A Cells; spheroids (3D), read-out: IC50 (3D))?
**A.** 7 µM

**Q.** What about the IC50 (BT474 Cells; BT-474, monolayers (2D), read-out: IC50 (2D)) of the same molecule?
**A.** 10 µM

**Q.** What about the IC50 (BT474 Cells; BT-474, spheroids (3D), read-out: IC50 (3D)) of the same molecule?
**A.** 10 µM

**Q.** With O=C(c1ccccc1F)N1CCN(c2ccnc3cc(Cl)ccc23)CC1 [Compound D2, (4-(7-Chloroquinolin-4-yl)piperazin-1-yl)(2-fluorophenyl)methanone] as the molecule, how does the EC50 (CSM14.1 cells) read?
**A.** < 20 µM

**Q.** What about the AUC(0-inf) ([1]; IV (2 mg/kg)) of the same molecule?
**A.** 1840 ± 209 ng·h/mL

**Q.** What about the AUC(0-t) ([1]; IV (2 mg/kg)) of the same molecule?
**A.** 1790 ± 187 ng·h/mL

**Q.** What about the Cmax ([1]; IV (2 mg/kg)) of the same molecule?
**A.** 7.59 ± 0.55 µM

**Q.** And the Tmax ([1]; IV (2 mg/kg))?
**A.** 0.017 h

**Q.** What about the clearance ([1]; IV (2 mg/kg)) of the same molecule?
**A.** 18.3 mL/min/kg

**Q.** And the half-life ([1]; IV (2 mg/kg))?
**A.** 1.77 ± 0.33 h

**Q.** And the MRT inf ([1]; IV (2 mg/kg))?
**A.** 1.57 ± 0.22 h

**Q.** What about the Vd ([1]; IV (2 mg/kg)) of the same molecule?
**A.** 2.76 ± 0.22 L/kg

**Q.** And the AUC(0-inf) ([1]; PO (10 mg/kg))?
**A.** 8060 ± 3220 ng·h/mL

**Q.** And the AUC(0-t) ([1]; PO (10 mg/kg))?
**A.** 7890 ± 3320 ng·h/mL

**Q.** What about the Cmax ([1]; PO (10 mg/kg)) of the same molecule?
**A.** 7.33 ± 12.5 µM

**Q.** And the Tmax ([1]; PO (10 mg/kg))?
**A.** 0.42 ± 0.14 h

**Q.** What about the half-life ([1]; PO (10 mg/kg)) of the same molecule?
**A.** 1.76 ± 0.66 h

**Q.** And the MRT inf ([1]; PO (10 mg/kg))?
**A.** 2.88 ± 1.21 h

**Q.** And the F [1]?
**A.** 88%

**Q.** For Cc1ccc(C(=O)N2CCN(c3ccnc4cc(Cl)ccc34)CC2)cc1Cl [Compound D5, (3-Chloro-4-methylphenyl)(4-(7-chloroquinolin-4-yl)piperazin-1-yl)methanone], which EC50 (CSM14.1 cells) is on record?
**A.** < 20 µM

**Q.** For Cc1ccc2cccc(NC(=O)c3cccc(OC(C)C)c3)c2n1 [Compound A13, 3-Isopropoxy-N-(2-methylquinolin-8-yl)benzamide], which “Vmax of a SERCA” value (SERCA) is on record?
**A.** significantly increased

**Q.** What about the F [2] of the same molecule?
**A.** 1.4%

**Q.** Which EC50 (SERCA, cardiac SR) does the source give for O=C(Nc1cccc2cccnc12)c1cccc(F)c1 [Compound A7, 3-Fluoro-N-(quinolin-8-yl)benzamide] here?
**A.** < 20 µM

— patent US20170281611A1, “QUINOLINES AND THEIR USE FOR TREATING ENDOPLASMIC RETICULUM STRESS-CAUSED DISEASES” (EIGER BIOPHARMACEUTICALS, INC., priority 2014, published 2017)
